Measured values from patent US20240156718A1, “TOPICAL COMPOSITION AND USE THEREOF” (BLIS TECHNOLOGIES LIMITED, priority 2021, published 2024).

Experiments:
M. luteus Q24 = assay: Inhibition by potential prebiotics spotted on a Q24 lawn; type: cell-based, Streptococcus salivarius; settings: 20 μL spots, 24 hours at 37° C.; for Suitable to be used in Q24 containing serum/product?: 100% to 0.3% (oils at 100% only); for inhibitory concentration vs Blis Q24: 100% to 0.3%
Method: CABK12 agar plates were split into segments of 6 and […] suspension of M. luteus […] raw ingredient P3. Each of the aqueous potential prebiotic substances to be screened were serially diluted in a range of concentrations from 100% to 0.3% using sterile distilled water. Oil based substances were tested at 100% only. 20 μL of each concentration, of each substance were pipetted into a spot onto one segment of the […]12 agar plate and was incubated for 24 hours at 37° C. 5% CO2 in air.

[1] = tested on: skin commensals S. epidermidis #4, S. epidermidis E30, S. hominis ATCC 27844; assay: Prebiotic activity against skin commensals (growth); type: cell-based; settings: FIG. 14
Method: The same method was used as above for Blis Q24 ingredient except the suspensions with optical density of 0.125 were prepared for each of the 3 selected skin commensals.
The skin commensals selected were: • S. epidermidis #4—Sensitive to Q24 inhibition • S. epidermidis E30—Resistant to Q24 inhibition • S. hominis ATCC 27844—Mixed resistance condition dependent

EpiDerm tissues [2] = assay: EpiDerm anti-inflammatory effect, cytokine release in response to 0.5% SDS; type: cell-based, human; settings: pre-treatment, day 5 vs day 4
Method: (§1) The maturation of 36 immature EpiDerm tissues was performed as described above. The fully differentiated tissues were numbered from 1-36 and were randomly assigned to receive one of the treatments shown in Table 3. This was done such that each of the 6 combinations of main treatment (PBS, Q24 or vitamin C) and 0.5% SDS exposure treatment (±0.5% SDS) was randomly represented on each of five 6-well cell culture plates. The remaining 6 tissues, which were destined for histology or else to receive 5% SDS, were grouped together on the sixth cell culture plate. Following maturation, the 36 tissues were cultured in the assay medium for 24 h at 37° C. in a 5% CO2 atmosphere, after which the baseline (day 0) conditioned media samples were collected and stored frozen at −80° C. for cytokine measurement. […] The viabilities of the other 33 tissues were assessed using the MTT viability assay.
(§2) For quantification of IL-1β, IFN-α2, IFN-γ, TNF-α, MCP-1 (CCL2), IL-6, IL-8 (CXCL8), IL-10, IL-12p70, IL-17A, 1L-18, IL-23, and IL-33, bead-based multiplex LEGENDplex™ analysis(LEGENDplex™ Human Inflammation Panel 1 (13-plea); BioLegend, San Diego, CA, USA) was used according to the manufacturer's instructions. The relevance of each of the measured cytokines is described in Table 4. […] Data were analysed via Legendplex V8.0 software (BioLegend) and specified as pg/mL.

EpiDerm tissues [3] = assay: EpiDerm safety experiment, cytokine levels day 0 and day 4; type: cell-based, human; settings: Blis Q24 1×10^8 CFU/ml or vitamin C 50 μg/mL
Method: Upon receipt, the final development of the immature EpiDerm (EPI-201-4D; MatTekCorporation, Ashland, MA, USA) tissues was completed following the manufacturer's instructions. In brief, the tissues were transferred from the agarose-containing gel on which they were shipped to cell culture plates containing pre-warmed differentiation medium (EPI-201-DM). They were then maintained at 37° C. in a 5% CO2 atmosphere for 4 days, with 2 or […] changes to fresh differentiation medium during that period. Finally, the fully developed EpiDerm tissues were transferred to fresh plates containing standard culture medium (EPI-100-NMM) for use in each experiment.
as §1, §2

Blis Q24 = assay: Effect of prebiotics on the growth of Blis Q24 in M17 broth; type: cell-based, Micrococcus luteus; settings: 5% prebiotic in M17 broth
Method: A batch of M17 broth (Difco #218561) was made, excluding the lactose solution, by following the manufacturer's instructions. 50 ml of broth was dispensed into sterile 100 ml Schott bottles and 2.5 g (5%) of each potential prebiotic substance was added and mixed well using a magnetic stirrer and stir plate. The mixtures were autoclaved at 110° C. for 10 minutes and allowed to cool. The suspensions of the prebiotic candidates were prewarmed to 40° C. in order to allow for increased homogenisation of any oil-based components prior to dispensing into the wells. 2 ml of each suspension and an M17 only (control) were pipetted into a sterile 24 well tissue culture plate. A suspension of […] raw ingredient P3 was made in PBS and adjusted to an optical density of 0.125. 100 μl of the suspension was pipetted into each well. Once the suspension was added each well was mixed by aspirating and dispensing the solution 5 times with a 1 ml pipette. Each sample was enumerated at time points 0, 3, 6, 15, 26 and 34 hours using the following method. […] The number of colonies in each spot were then counted using an electronic colony counter and average to give the final result. […] Olive squalene was selected as one of the preferred prebiotics with 3 others that were analysed in combination with olive squalene and compared to the results of the prebiotic candidates alone (FIG. 13).

| Compound | Suitable to be used in Q24 containing serum/product? (M. luteus Q24) | further results |
| --- | --- | --- |
| CC(C)=CCC/C(C)=C/CC/C(C)=C/CC/C=C(\C)CC/C=C(\C)CCC=C(C)C [Olive Squalene] | Yes | growth of skin commensals compared to control media [1]: do not offer any advantage |
| O=C1O[C@H]([C@@H](O)CO)C(O)=C1O [Vitamin C (Ascorbic acid), Ascorbic acid] | Yes | IL-6 released in response to 0.5% SDS (EpiDerm tissues [2]): slight increase; IL-6 levels, day 4 vs day 0 (EpiDerm tissues [3]; daily for 4 days): slight but significant increase; IL-8 levels, day 4 vs day 0 (EpiDerm tissues [3]; daily for 4 days): unchanged; IL-18 levels, day 4 vs day 0 (EpiDerm tissues [3]; no significant differences): trend for lower values |
| Hyaluronic acid | Yes |  |
| OC[C@@H](O)[C@H](O)[C@@H](O)CO [Xylitol] | Yes | growth of Q24 compared to the control (Blis Q24): detrimental to the live Q24 cell count at 24 hours |
| CC(O)C(=O)O (stereo not drawn) [Lactic acid (LA), Lactic acid] | No | inhibitory concentration vs Blis Q24 (M. luteus Q24): > 2.5% |
| NC(=O)NC1NC(=O)NC1=O (stereo not drawn) [Allantoin] | Yes |  |
| NC(=O)c1cccnc1 [Niacinamide] | Yes |  |
| O=C(O)c1ccccc1O [Salicylic acid (SA), Salicylic acid] | No | inhibitory concentration vs Blis Q24 (M. luteus Q24): > 5% |
| Cc1c(C)c2c(c(C)c1O)CC[C@@](C)(CCC[C@H](C)CCC[C@H](C)CCCC(C)C)O2 [Vitamin E, D Alpha Tocopherol 1000IU, D Alpha Tocopherol] | Yes |  |
| CC1=C(/C=C/C(C)=C/C=C/C(C)=C/CO)C(C)(C)CCC1 [Retinol (Vitamin A), Retinol] | Yes |  |
